Source: US10149876B2, “Tripterygium wilfordii extracts to overcome chemotherapy resistance” (WESTERN UNIVERSITY OF HEALTH SCIENCES, priority 2012, dated 2018)
Where “and” joins values, the source holds several entries; their conditions need not be identical. Identical values can stand only once. Like-named read-outs stand apart in the source and are kept apart here.

Experiments:
DU145-TxR cells = assay: SRB cell viability assay, docetaxel-resistant DU145-TxR cells; type: cell-based; conditions: Homo sapiens; for IC50: docetaxel, DU-145-TxR; for viability at 1 pM / viability at 0.0001 µM / viability at 0.000333 µM / viability at 0.001 µM / viability at 0.00333 µM / viability at 0.01 µM / viability at 0.0333 µM / viability at 0.1 µM: read-out: % viable, DU145-TxR; for viability at 1 pM: docetaxel 0.001 nM 72 h; for viability at 0.0001 µM: docetaxel 0.1 nM 72 h; for viability at 0.000333 µM: docetaxel 0.333 nM 72 h; for viability at 0.001 µM: docetaxel 1 nM 72 h; for viability at 0.00333 µM: docetaxel 3.33 nM 72 h; for viability at 0.01 µM: docetaxel 10 nM 72 h; for viability at 0.0333 µM: docetaxel 33.3 nM 72 h; for viability at 0.1 µM: docetaxel 100 nM 72 h
Protocol: Using the methods described in Example 2, the chemosensitizing effect of LGT-E pretreatment on docetaxel-treated DU145-TrX cells was studied. […] The DU145-TxR cells were plated at passage 38. […] Tables 6, 8, and 10 report control data obtained from DU145-TxR cells that were not pre-treated with LGT-E. FIG. 4 summarizes the data of Tables 5-10 in a graphical format.

K562 cells = assay: SRB cell viability assay, daunorubicin-sensitive K562 cells; type: cell-based, human; conditions: 72 h, background = 0.044; for mean A at 565 nm: no LGT-E pre-treatment; for mean A at 516 nm: pre-treated with 25 μg/ml LGT-E
Protocol: Cell culture of the above cell lines was performed as described in Example 2, except that 5,000, rather than 3,000 cells were plated per well for the K562, K562/Dox, BT474, SkBr3 lines.
Table 17 also contains the serially-diluted concentrations of drugs that each cell line was tested against.
Table 36 reports the cell viability data relating to pre-treatment with LTG-E prior to daunorubicin treatment. Table 37 reports control data obtained from cells that were not pre-treated with LGT-E prior to daunorubicin treatment. FIG. 15 summarizes the data of Tables 36 and 37 in a graphical format.

[1] = Docetaxel 0.001 nM (so in the source)
[2] = Docetaxel 0.1 nM (so in the source)
[3] = Docetaxel 3.33 nM (so in the source)
[4] = Docetaxel 10 nM (so in the source)
[5] = Docetaxel 33.3 nM (so in the source)
[6] = Docetaxel 100 nM (so in the source)

With `CC(=O)O[C@@]12CO[C@@H]1C[C@H](O)[C@@]1(C)C(=O)[C@H](O)C3=C(C)[C@@H](OC(=O)[C@H](O)[C@@H](NC(=O)OC(C)(C)C)c4ccccc4)C[C@@](O)([C@@H](OC(=O)c4ccccc4)[C@H]21)C3(C)C` [Docetaxel, docetaxel] the IC50 (DU145-TxR cells; LGT-E 25 μg/ml pre-treatment, read-out: IC50 of drug when cells pre-treated with Chemosensitizing Agent before drug treatment) was 5.76 nM and 0.00465 µg/mL, the IC50 (DU145-TxR cells; line of LGT-E 25 μg/ml, read-out: IC50 of drug when cells treated with drug only) was > 100 nM and ≥ 0.0808 µg/mL and the viability at 1 pM (DU145-TxR cells; LGT-E 25 μg/ml pre-treatment) was 100%. For the same compound, the viability at 0.0001 µM (DU145-TxR cells; LGT-E 25 μg/ml pre-treatment) was 102%, the viability at 0.000333 µM (DU145-TxR cells; LGT-E 25 μg/ml pre-treatment) was 102% and the viability at 0.001 µM (DU145-TxR cells; LGT-E 25 μg/ml pre-treatment) was 98.6%. It also gave a viability at 0.00333 µM (DU145-TxR cells; LGT-E 25 μg/ml pre-treatment) of 74.7%, a viability at 0.01 µM (DU145-TxR cells; LGT-E 25 μg/ml pre-treatment) of 33.5% and a viability at 0.0333 µM (DU145-TxR cells; LGT-E 25 μg/ml pre-treatment) of 13.7%. The viability at 0.1 µM (DU145-TxR cells; LGT-E 25 μg/ml pre-treatment) was 6.2%, the viability at 1 pM (DU145-TxR cells; LGT-E 50 μg/ml pre-treatment) was 100% and the viability at 0.000333 µM (DU145-TxR cells; LGT-E 50 μg/ml pre-treatment) was 97%. The viability at 0.001 µM (DU145-TxR cells; LGT-E 50 μg/ml pre-treatment) was 82.1%, the viability at 0.00333 µM (DU145-TxR cells; LGT-E 50 μg/ml pre-treatment) was 34.4% and the viability at 0.01 µM (DU145-TxR cells; LGT-E 50 μg/ml pre-treatment) was 11.6%. For the same compound, the viability at 0.0333 µM (DU145-TxR cells; LGT-E 50 μg/ml pre-treatment) was 5.4%, the viability at 0.1 µM (DU145-TxR cells; LGT-E 50 μg/ml pre-treatment) was 5.5% and the viability at 1 pM (DU145-TxR cells; LGT-E […] pre-treatment) was 100%. It also gave a viability at 0.0001 µM (DU145-TxR cells; LGT-E […] pre-treatment) of 98.1%, a viability at 0.000333 µM (DU145-TxR cells; LGT-E […] pre-treatment) of 96% and a viability at 0.001 µM (DU145-TxR cells; LGT-E […] pre-treatment) of 98.1%. It also gave a viability at 0.00333 µM (DU145-TxR cells; LGT-E […] pre-treatment) of 91.5%, a viability at 0.01 µM (DU145-TxR cells; LGT-E […] pre-treatment) of 82.9% and a viability at 0.0333 µM (DU145-TxR cells; LGT-E […] pre-treatment) of 41%. For the same compound, the viability at 0.1 µM (DU145-TxR cells; LGT-E […] pre-treatment) was 17.5%, the viability at 1 pM (DU145-TxR cells; no pre-treatment (Table 6)) was 100% and the viability at 0.0001 µM (DU145-TxR cells; no pre-treatment (Table 6)) was 103%. It also gave a viability at 0.000333 µM (DU145-TxR cells; no pre-treatment (Table 6)) of 102%, a viability at 0.001 µM (DU145-TxR cells; no pre-treatment (Table 6)) of 102% and a viability at 0.00333 µM (DU145-TxR cells; no pre-treatment (Table 6)) of 102%. The viability at 0.01 µM (DU145-TxR cells; no pre-treatment (Table 6)) was 102%, the viability at 0.0333 µM (DU145-TxR cells; no pre-treatment (Table 6)) was 101% and the viability at 0.1 µM (DU145-TxR cells; no pre-treatment (Table 6)) was 94.8%. It also gave a viability at 1 pM (DU145-TxR cells; no pre-treatment (Table 8)) of 100%, a viability at 0.0001 µM (DU145-TxR cells; no pre-treatment (Table 8)) of 102% and a viability at 0.000333 µM (DU145-TxR cells; no pre-treatment (Table 8)) of 102%. It also gave a viability at 0.001 µM (DU145-TxR cells; no pre-treatment (Table 8)) of 102%, a viability at 0.00333 µM (DU145-TxR cells; no pre-treatment (Table 8)) of 102% and a viability at 0.01 µM (DU145-TxR cells; no pre-treatment (Table 8)) of 100%. It also gave a viability at 0.0333 µM (DU145-TxR cells; no pre-treatment (Table 8)) of 98.1%, a viability at 0.1 µM (DU145-TxR cells; no pre-treatment (Table 8)) of 91% and a viability at 1 pM (DU145-TxR cells; no pre-treatment (Table 10)) of 100%. For the same compound, the viability at 0.0001 µM (DU145-TxR cells; no pre-treatment (Table 10)) was 101%, the viability at 0.000333 µM (DU145-TxR cells; no pre-treatment (Table 10)) was 97.7% and the viability at 0.001 µM (DU145-TxR cells; no pre-treatment (Table 10)) was 99.3%. It also gave a viability at 0.00333 µM (DU145-TxR cells; no pre-treatment (Table 10)) of 98.8%, a viability at 0.01 µM (DU145-TxR cells; no pre-treatment (Table 10)) of 97.2% and a viability at 0.0333 µM (DU145-TxR cells; no pre-treatment (Table 10)) of 95.4%. The viability at 0.1 µM (DU145-TxR cells; no pre-treatment (Table 10)) was 90.9%, the “mean A at 565 nm” value (K562 cells; [1]) was 2.844 and the “mean A at 516 nm” value (K562 cells; [1]) was 2.860. For the same compound, the “mean A at 565 nm” value (K562 cells; [2]) was 2.874, the “mean A at 516 nm” value (K562 cells; [2]) was 2.851 and the “mean A at 565 nm” value (K562 cells; Docetaxel 0.333 nM (so in the source)) was 2.274. For the same compound, the “mean A at 565 nm” value (K562 cells; Docetaxel 1 nM (so in the source)) was 1.414, the “mean A at 565 nm” value (K562 cells; [3]) was 1.269 and the “mean A at 516 nm” value (K562 cells; [3]) was 1.331. The “mean A at 565 nm” value (K562 cells; [4]) was 0.732, the “mean A at 516 nm” value (K562 cells; [4]) was 1.148 and the “mean A at 565 nm” value (K562 cells; [5]) was 0.300. For the same compound, the “mean A at 516 nm” value (K562 cells; [5]) was 0.723, the “mean A at 565 nm” value (K562 cells; [6]) was 0.436 and the “mean A at 516 nm” value (K562 cells; [6]) was 0.553.
